According to US7786258B2, “Methods for inhibiting immune complex formation in a subject” (Trinity Therapeutics, Inc., priority 2004, dated 2010):
Positions of bridges follow the written chain, without caps; N, C: chain ends. No end group written: not given here.

Experiments:
RF = assay: Inhibition of RF binding to immune complexes using additional peptides (Example 5); details: PAP pre-incubated with peptide one hour, RF coated plates; positive control 1.176
Experimental: The ability of additional peptides to inhibit the binding of RF to immune complexes was tested. Immune complexes (PAP) were formed by mixing 2 μl of rabbit anti-peroxidase with 50 μl of peroxidase in 1 ml distilled water. PAP (100 μl) were pre-incubated with 100 μl of peptide for one hour. Plates coated with RF were blocked with 5× BSA for 24 hours. The PAP/peptide mixtures (100 μl) were incubated with the RF coated plates for 30 minutes. RF (100 μl of a 200 I.U. standard supplied by Research Diagnostics) was used as a negative control. After washing and incubation with ABTS substrate (Quidel Corp., San Diego, Calif.) for 15 minutes, plates were read at 405 nm.

human monomeric IgG [1] = assay: Inhibition of RF binding to monomeric IgG by additional peptides (Example 7); details: peptides pre-incubated 1 hour with monomeric IgG, then 200 I.U. RF; positive control 1.312
Experimental: The ability of additional peptides to inhibit RF binding to monomeric IgG was tested. A standard rheumatoid factor commercial test was used (Research Diagnostics, New Jersey) with the following modifications: 100 μl of test peptides were pre-incubated for 1 hour with human monomeric IgG (Research Diagnostics, New Jersey). Plates were then washed and incubated with 200 I.U. of the RF positive control supplied with the test kit. The rest of the test was performed according to the manufacturer's instructions.

FcγIIa [2] = assay: Inhibition of FcR binding to PAP by additional peptides, FcγIIa coated plates (Example 8); details: OD read at 405 nm; positive control 1.599
Experimental: (§1) Falcon microtiter plates were coated with 1:10 dilutions of highly purified FcγIIa, FcγIIb and FcγIII, sealed, and incubated for […] at 4° C. […] PAP immune complexes were formed as described in Example 5. PAP (100 μl) were pre-incubated with 100 μl of peptide for one hour. PAP/peptide mixtures were added to the FcR coated plates and incubated for one hour. After washing, plates were incubated with ABTS substrate for 15 minutes and read at 405 nm.

FcγIII [3] = assay: Inhibition of FcR binding to PAP by additional peptides, FcγIII coated plates (Example 8); details: OD read at 405 nm; positive control 1.588
Experimental: as §1

FcγIIb [4] = assay: Inhibition of FcR binding to PAP by additional peptides, FcγIIb coated plates (Example 8); details: OD read at 405 nm; positive control 1.394
Experimental: as §1

C1q [5] = assay: Inhibition of C1q binding to immune complexes using additional peptides (Example 6); design: species or system human; details: PAP pre-incubated with peptide or human C1q one hour, C1q coated plates; positive control 2.355
Experimental: The C1q/PAP and peptide/PAP mixtures (100 μl) were incubated with C1q coated plates for 30 minutes. After washing, plates were incubated with ATBS (Quidel Corp.) for 15 minutes and read at 405 nm.

C1q [6] = assay: Inhibition of C1q binding: reverse ELISA, PAP immune complexes on C1q coated plates (Example 3); design: species or system human; details: for OD 405 nm: peptide or C1q pre-incubated with PAP 30 minutes, (+) control PAP with no peptide 0.467, lower OD = more inhibition
Description: For this reason, a “reverse ELISA” technique is used to assess binding of the Fc region to ligands that bind to immune complexed IgG Fc. In a reverse ELISA, the enzyme (e.g., HRP) is not covalently conjugated to the Fc portion of the secondary antibody. Rather, a preformed immune complex of peroxidase-rabbit (or mouse) anti-peroxidase IgG (“PAP” complex) is used. […] In the absence of competitor, PAP complexes bind to the immobilized ligand and the reaction between HRP and its substrate produces a signal. This signal is reduced by polypeptides and compounds of the invention that inhibit PAP binding to the immobilized ligand.
Inhibition of C1q binding: Twenty μl of peroxidase (P) (Sigma) was diluted in 2 ml of sample diluent (Quidel Corp, San Diego, Calif.). Twenty μl of anti-peroxidase (AP) (Sigma) was diluted in 2 ml of sample diluent, and 20 μl of the diluted AP was added to the diluted P (1:100 antigen:antibody ratio) to form peroxidase-anti-peroxidase (PAP) complexes. The extreme antigen excess guaranteed that any single antibody would be bound to two peroxidase molecules and larger immune complexes would not form, thus preventing the bridging of larger immune complexes to multimeric C1q (heximeric). One hundred μl of peptide or C1q was pre-incubated with freshly prepared PAP for 30 minutes, added to C1q coated plates (Quidel Corp.), and incubated for one hour. After washing, ABTS substrate (Quidel Corp.) was added to the plates and incubated for 30 minutes, and the plates were read at 405 nm. All peptides were cyclized by forming a disulfide bond between the two cysteine residues.

FcγIII [7] = assay: Inhibition of FcR binding: reverse ELISA, PAP immune complexes on FcγIII coated plates (Example 3); details: plates read at 450 nm, (+) control PAP with no peptide 3.600
Experimental: (§2) Inhibition of FcR binding: Once the reverse ELISA protocol was established using the C1q assay, the assay was redesigned using FcγIIa, FcγIIb and FcγIII in place of C1q. Highly purified FcγIIa, FcγIIb and FcγIII were immunoadsorbed onto plastic microwells. After optimizing the FcγR reverse ELISA system, simple competitive inhibition experiments using polypeptides of the invention were conducted to investigate their ability to inhibit binding of immune complexes to purified FcγR.
(§3) Falcon microtiter plates were coated with 1:10 dilutions of highly purified FcγIIa, FcγIIb and FcγIII and incubated for 24 hours. […] Equal amounts (50 μl) of peptide and 1:10 PAP immune complexes were pre-incubated for one hour and then incubated on the FcR coated plates for one hour. […] Stop solution (10 μl) was added and the plates were read at 450 nm.

FcγIIb [8] = assay: Inhibition of FcR binding: reverse ELISA, PAP immune complexes on FcγIIb coated plates (Example 3); details: plates read at 450 nm, (+) control PAP with no peptide 3.600
Experimental: as §2, §3

human monomeric IgG [9] = assay: Inhibition of rheumatoid factor binding to monomeric IgG (Example 4); details: peptides pre-incubated 30 minutes with monomeric IgG, then 200 I.U. RF; (+) control buffer only 1.376
Experimental: The ability of the peptides to inhibit the binding of rheumatoid factor to monomeric IgG was tested. Binding to monomeric IgG may be important, as it may increase the half-life of particular peptides and allow them to be more bioactive.
A standard rheumatoid factor commercial test was used (Research Diagnostics) with the following modifications: 100 μl of test peptides were pre-incubated for 30 minutes with human monomeric IgG (Research Diagnostics). Plates were washed and incubated with 200 I.U. rheumatoid factor positive control supplied with the test kit. The rest of the test was performed according to the manufacturer's instructions.

FcγIIa [10] = assay: Inhibition of FcR binding: reverse ELISA, PAP immune complexes on FcγIIa coated plates (Example 3); details: plates read at 450 nm, (+) control PAP with no peptide 3.600
Experimental: as §2, §3

histone = assay: Inhibition of histone binding: PAP immune complexes on histone-coated plates (Example 3); details: rabbit PAP pre-incubated with peptides or histone one hour; (+) control buffer only 1.268
Experimental: Inhibition of histone binding: The binding of immune complexes to the kidneys in lupus nephritis appears to involve (a) the binding of histones to the GBM, and then (b) the binding of immune complexes (through the IgG Fc CH2-CH3 cleft) to the bound histones. Experiments similar to those described above were used to inhibit binding of purified histone to IgG Fc binding. Histone (Sigma) was diluted 1:10 in coating buffer (Alpha Diagnostic International) and incubated on Falcon microtiter plates for 24 hours. Plates were blocked with 5× BSA blocking solution (Alpha Diagnostic International) for 24 hours. Freshly prepared 1:10 rabbit PAP (Sigma) was pre-incubated with either peptides or histone for one hour, and 100 μl of the mixture was added to the histone-coated plates for one hour. Plates were incubated with ABTS substrate (Quidel Corp.) for 45 minutes, and OD 405 was read.

polyclonal IgM RF = assay: Inhibition of RF binding: PAP immune complexes on rheumatoid factor coated plates (Example 3); details: for OD 405 nm: PAP pre-incubated 30 minutes with peptides or RF, (+) control PAP with no peptide 0.753; for inhibition of RF binding to immune complexes, in words: Table 3
Experimental: Inhibition of RF binding: The assay to test inhibition of RF binding to the IgG Fc CH2-CH3 clefts was very similar to the C1q-CIC EIA assay described above, with the exception that polyclonal IgM RF was coated onto the microwells instead of C1q. […] High titer, RF positive sera were purchased from Research Diagnostics (Flanders, N.J.).
A 1:10 dilution of 200 μl of 200 I.U. rheumatoid factor (RF) (+) control (positive standard provided by Research Diagnostics was coated onto Falcon microtiter plates and incubated for 24 hours. The plates were blocked with 1:5 BSA blocking buffer (Alpha Diagnostic International) for one hour. Freshly prepared 1:10PAP (antigen:antibody) immune complexes were pre-incubated for 30 minutes with peptides or RF (positive control containing only buffer). After washing, plates were incubated with ABTS substrate (Research Diagnostics) for 30 minutes and then read at 405 nm. Results are shown in Table 3.

MBP = details: rabbit PAP pre-incubated with peptide or MBP 30 minutes; (+) control buffer only 1.033
Experimental: Inhibition of MBP binding: MBP (Sigma) was diluted 1:10 with coating buffer (Alpha Diagnostic International) and incubated for 24 hours on Falcon microtiter plates. Plates were washed and then blocked with 5× BSA blocking buffer (Alpha Diagnostic International) for 24 hours. Rabbit 1:10 PAP immune complexes were pre-incubated with equal amounts of peptide or MBP for 30 minutes. One hundred μl of PAP immune complexes/peptide or PAP/MBP was then added to the MBP-coated plates and incubated for one hour. The plates were washed and incubated with TMB substrate (Alpha Diagnostic International) for 30 minutes. After adding stop solution (Alpha Diagnostic International), the plates were read at 450 nm.
Further experiments were conducted to determine the effect of SEQ ID NO:47 (also referred to as NB-406) on binding of MBP to IgG PAP immune complexes.

whole human IgG4 = assay: Inhibition of Fc:Fc interactions: immune complexes on IgG4 coated microwells (Example 3); format: binding; details: for OD 405 nm: IgG4 coated microwells, positive control (buffer) 0.716
Chain of whole human IgG4 (P01861 99-327 isoform P01861-1 limits assumed): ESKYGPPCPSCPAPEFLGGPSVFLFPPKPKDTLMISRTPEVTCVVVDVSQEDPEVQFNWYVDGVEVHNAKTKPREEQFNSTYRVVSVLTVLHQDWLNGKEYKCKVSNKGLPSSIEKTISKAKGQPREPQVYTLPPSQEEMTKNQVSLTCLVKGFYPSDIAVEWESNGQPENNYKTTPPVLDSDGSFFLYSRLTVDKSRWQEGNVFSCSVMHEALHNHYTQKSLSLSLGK
Description: Inhibition of Fc:Fc interactions: The Fc region of IgG4 interacts in an Fc to Fc fashion with immune complexed IgG. Purified IgG4 is used with polypeptides of the invention to examine inhibition of immune complex formation and Fc:Fc interactions. Chemical modification of His435, a critical IgG Fc amino acid bound by polypeptides of the invention, is known to inhibit Fc:Fc interactions.

Sequence | OD 405 nm (RF) | OD 405 nm (human monomeric IgG [1]) | OD 405 nm (FcγIIa [2]) | OD at 405 nm (FcγIII [3]) | OD 405 nm (FcγIIb [4]) | OD 405 nm (C1q [5]) | inhibition of immune complex binding to solid phase C1q, in words (C1q [6]; Table 1) | OD 405 nm (C1q [6]) | OD 450 nm (PAP immune complex binding) (FcγIII [7]) | OD at 450 nm (PAP binding to FcγIIb) (FcγIIb [8]) | OD 405 nm (human monomeric IgG [9]) | PAP immune complex binding (OD at 450 nm) (FcγIIa [10]) | OD 405 nm (histone) | OD 405 nm (polyclonal IgM RF) | inhibition of RF binding to immune complexes, in words (polyclonal IgM RF) | OD 405 nm (MBP) | OD 405 nm (whole human IgG4) | inhibition of Fc:Fc binding, in words (whole human IgG4; text on Table 8)
APPCAFHLGELVWCT (disulfide 4-14 (inferred)) | 0.226 | 1.159 | 0.605 | 0.880 | 0.380 | 0.983 |  |  |  |  |  |  |  |  |  |  |  | 
DCAAHLGELAACT (disulfide 2-12 (inferred)) |  |  |  |  |  |  | not significantly different from the positive control | 0.458 | 2.413 | 2.263 | 1.421 | 2.434 |  |  |  |  |  | 
DCARHLGELVWCT (disulfide 2-12 (inferred)) |  |  |  |  |  |  |  | 0.193 | 2.529 | 1.952 | 1.231 | 2.539 | 0.363 | 0.109 | very effective inhibition | 0.473 | 0.096 | strongest inhibition
DCAFHLGELVWCT (disulfide 2-12 (inferred)) | 0.267 | 0.962 | 0.660 | 0.810 | 0.510 | 0.859 |  |  |  |  |  |  |  |  |  |  |  | 
APPCAWHLGELVWCT (disulfide 4-14 (inferred)) | 0.250 | 1.166 | 0.658 | 0.530 | 0.562 | 1.148 |  |  |  |  |  |  |  |  |  |  |  | 
PCARHLGELVWCT (disulfide 2-12 (inferred)) |  |  |  |  |  |  |  | 0.205 | 1.602 | 1.211 | 1.323 | 1.149 | 0.444 | 0.106 | very effective inhibition | 0.489 | 0.129 | 
RCARHLGELVWCT (disulfide 2-12 (inferred)) |  |  |  |  |  |  |  | 0.247 | 3.502 | 3.284 | 1.314 | 3.398 | 0.359 | 0.152 |  | 0.569 | 0.191 | 
DCAWHLGELAACT (disulfide 2-12 (inferred)) [peptide substituted with alanine at positions 10 and 11] |  |  |  |  |  |  |  |  | 1.345 | 1.067 | 1.397 | 1.484 | 0.729 | 0.622 |  | 0.706 | 0.557 | 
